A short description of the series: in vitro. The settings on record: human, hela cells, % viability.

In general, viability refers to a read-out of living cells in per cent, often relative to untreated cells. Regarding `COc1ccc(C(C)C)cc1-c1cncc(NC(C)CCCC(C)(C)O)n1` (stereo not shown) [CBK065521], the viability at 28.5 h, 10 µM is 93.3%.

In the case of `Cc1ccc(CN(Cc2cncn2C)CC2CCCO2)o1` (stereo not shown) [CBK283272], the viability at 28.5 h, 10 µM stood at 93.2%.

In the case of `Cc1nc2c(OCC(=O)c3ccc(Cl)cc3Cl)cccn2c1N(C)CC1CC1` [CBK147294], the viability at 28.5 h, 10 µM came to 105%.

As to `O=C1COc2ccccc2C/C=C/CC2(CCN(C(=O)c3n[nH]c4c3CCC4)CC2)CN1` [CBK292019], the viability at 28.5 h, 10 µM came to 111%.

As for `FC(F)(F)Oc1cccc(-c2cncc(NCc3ccncc3)n2)c1` [CBK065926], the viability at 28.5 h, 10 µM came out at 104%.

For the compound `Cn1c(-c2ccc(CN3CCCC3)cc2)cc2oc(-c3ccccc3SCCO)nc2c1=O` [CBK200427T], the viability at 28.5 h, 10 µM was 94.7%.

Turning to `Cc1nc(CCNC(=O)c2cc(C(C)C)n(C(C)(C)C)n2)cs1` [CBK304082], the viability at 28.5 h, 10 µM amounted to 89.2%.

Turning to `COc1ccc(CC(=O)NC2CC(C)(C)Cc3c2cnn3C)cc1` (stereo not shown) [CBK282886], the viability at 28.5 h, 10 µM came out at 99%.

As for `COc1ccc(C(=O)Nc2nc3ccc(S(C)(=O)=O)cc3s2)cc1` [CBK287338], the viability at 28.5 h, 10 µM is 94.3%.

Turning to `Cc1c(C(=O)NCc2ccccn2)nnn1-c1cccc(C(F)(F)F)c1` [CBK107395], the viability at 28.5 h, 10 µM stood at 92.9%.

In the case of `C=CCNc1nccnc1-c1ccc(CO)cc1` [CBK036870], the viability at 28.5 h, 10 µM is 91.4%.

In the case of `CCOc1ccc2[nH]c(=O)c(/C=C3\SC(=S)N(CCC(=O)O)C3=O)cc2c1` [CBK265213], the viability at 28.5 h, 10 µM was found to be 89.7%.

On to `COc1cc(/C=c2\sc3nc(-c4ccccc4OC(C)=O)nn3c2=O)ccc1OCc1ccccc1` [CBK264575], for which the viability at 28.5 h, 10 µM worked out at 99.2%.

On to `Cc1ccc(Cn2cnc3c(cnn3-c3ccc(C)c(C)c3)c2=O)cc1` [CBK287540], for which the viability at 28.5 h, 10 µM stood at 108%.

As to `CCOC(=O)c1cnc2cc(C)ccn2c1=O` [CBK086650], the viability at 28.5 h, 10 µM came to 93.1%.

Consider `CCN(CC)CCSc1nc(O)c(-c2ccccc2)c(=O)n1-c1ccccc1` [CBK263335C], for which the viability at 28.5 h, 10 µM turned out to be 111%.

As to `CCOC(=O)C(Cc1ccccc1)NC(=O)c1ccc(C)nc1` (stereo not shown) [CBK305952], the viability at 28.5 h, 10 µM was 89.6%.

Turning to `COc1ccc(/C=N/NS(C)(=O)=O)cc1` [CBK261981], the viability at 28.5 h, 10 µM was found to be 108%.

Take `O=C(Cc1ccccn1)N1CCc2ccccc2C1` [CBK200334]: the viability at 28.5 h, 10 µM came out at 104%.

For `CCOc1ccc2ccccc2c1CNCCc1ccc(S(N)(=O)=O)cc1` [CBK268732C], the viability at 28.5 h, 10 µM was 88.7%.

Turning to `Cc1ccc(-c2nnc3sc(-c4cnccn4)nn23)cc1` [CBK268258], the viability at 28.5 h, 10 µM was found to be 98.9%.

Turning to `COc1cc2c(cc1OC)CN(C(=O)Cn1cc(C)c(=O)[nH]c1=O)CC2` [CBK122745], the viability at 28.5 h, 10 µM turned out to be 92.4%.

For the compound `CC1CCCN(CC(=O)NCc2ccc(OCC(N)=O)cc2)CC1` (stereo not shown) [CBK305755], the viability at 28.5 h, 10 µM amounted to 92.1%.

On to `CNS(=O)(=O)c1cccc2c1CCN(C(=O)NC1CCOC1)C2` (stereo not shown) [CBK306172], for which the viability at 28.5 h, 10 µM amounted to 106%.

Take `CCCn1c(SCC(=O)N2CCN(C(=O)c3cccs3)CC2)n[nH]c1=O` [CBK297109]: the viability at 28.5 h, 10 µM came to 97.6%.

On to `O=C(c1c(NS(=O)(=O)c2cccc3cccnc23)sc2c1CCCC2)N1CCOCC1` [CBK028655], for which the viability at 28.5 h, 10 µM was 84.2%.

Consider `Cc1ccc(-c2ccc(CCC(=O)O)n2CC(=O)O)cc1` [CBK286922], for which the viability at 28.5 h, 10 µM turned out to be 94.8%.

Regarding `Cc1nn(C)cc1CN1CCCC(c2cc3ccccc3cn2)C1` (stereo not shown) [CBK285041], the viability at 28.5 h, 10 µM was 108%.

With `Cc1cc(C)nc(N2CCC(CC(=O)NCc3ccccc3N3CCCC3)CC2)n1` [CBK286071], the viability at 28.5 h, 10 µM was 95.5%.

For `COc1cc2c(cc1-c1nccn1CC1CN(C(C)=O)CCO1)CCC2` (stereo not shown) [CBK306850], the viability at 28.5 h, 10 µM came out at 88.7%.

Take `COc1cccc(CN2CCN(C(=O)c3cc(-c4ccncc4)nc4ccc(C)cc34)CC2)c1` [CBK267760]: the viability at 28.5 h, 10 µM is 86%.

In the case of `CC(=O)c1ccccc1-c1cnc(N(C)S(C)(=O)=O)c(C(=O)NCCc2ccccc2)c1` [CBK076516], the viability at 28.5 h, 10 µM is 93.9%.

In the case of `CS(=O)(=O)c1ccccc1S(=O)(=O)N1CCN(c2nc3ccccc3s2)CC1` [CBK269468], the viability at 28.5 h, 10 µM amounted to 97.7%.

In the case of `Cc1ccc(S(=O)(=O)NC[C@H]2O[C@@H](CC(=O)N3CCc4ccccc43)[C@H](O)[C@@H]2O)cc1` [CBK288917], the viability at 28.5 h, 10 µM was determined as 91.3%.

For `CC(=O)C(Sc1ccc2nnc(-c3ccc(C)cc3)n2n1)C(C)=O` [CBK287525], the viability at 28.5 h, 10 µM worked out at 98.9%.

In the case of `CN1CCN(C)C(COc2nccc(C(F)(F)F)n2)C1` (stereo not shown) [CBK113298], the viability at 28.5 h, 10 µM came to 95.2%.

For `Cn1cc(C(=O)NCC(c2ccc(F)cc2)N2CCCC2)ccc1=O` (stereo not shown) [CBK282843], the viability at 28.5 h, 10 µM turned out to be 87.4%.

As for `O=C(O)CCc1ccc(-c2cccs2)n1CCc1ccccc1` [CBK265983], the viability at 28.5 h, 10 µM was 113%.

Take `COc1ccc(CCN2C(=O)CC(Nc3ccc(N4CCOCC4)cc3)C2=O)cc1OC` (stereo not shown) [CBK266322]: the viability at 28.5 h, 10 µM is 97.7%.

For the compound `O=C(N/N=C\c1cccc(OC(=O)c2cccs2)c1)c1ccc([N+](=O)[O-])cc1` [CBK262289], the viability at 28.5 h, 10 µM was 77.3%.

For the compound `CC(=O)N1CCc2cc(Nc3ncnc4c3cnn4CCC#N)ccc21` [CBK305950], the viability at 28.5 h, 10 µM was found to be 101%.

Turning to `NC1CCC(NC(=O)c2cnc(-c3ccc(Cl)cc3)c(-c3ccco3)c2)CC1` (stereo not shown) [CBK037563], the viability at 28.5 h, 10 µM was 105%.

For `CCOc1cc(C2CC(=O)NC(SCC(=O)Nc3cccc(C(F)(F)F)c3)=C2C#N)ccc1O` (stereo not shown) [CBK265778], the viability at 28.5 h, 10 µM came out at 104%.

For the compound `COc1cccc([C@H]2CN(C(=O)c3ccccc3)[C@@H]3CCN(Cc4ccccc4)C[C@H]23)c1` [CBK285624], the viability at 28.5 h, 10 µM is 88.2%.

Regarding `COc1ccc(OCCOCCN2CCOCC2)cc1` [CBK261999], the viability at 28.5 h, 10 µM is 91.3%.

Turning to `O=C(NCCc1c[nH]c2cccc(C3(O)CCCC3)c12)C1CC1` [CBK285319], the viability at 28.5 h, 10 µM is 82.3%.

Turning to `Cc1cc(N2CCN(C(=O)CCc3ccsc3)CC2)nc(C(C)C)n1` [CBK305710], the viability at 28.5 h, 10 µM was determined as 113%.

`CN(C(=O)CN1CCOC(Cn2cccn2)C1)C1(C#N)CCCCC1` (stereo not shown) [CBK305335]: the viability at 28.5 h, 10 µM stood at 97.3%.

Turning to `CC1CN(CCOc2ccccc2C=O)CC(C)O1` (stereo not shown) [CBK269687C], the viability at 28.5 h, 10 µM stood at 101%.

Consider `Cc1[nH]c(=S)[nH]c(=O)c1Cc1cccc2ccccc12` [CBK115563], for which the viability at 28.5 h, 10 µM worked out at 82.4%.

`O=C(NCc1cccs1)c1ccc(N2CCN(C(=O)c3ccccc3C(F)(F)F)CC2)nn1` [CBK153218]: the viability at 28.5 h, 10 µM was 87.6%.

As for `O=[N+]([O-])c1ccc(CN2CCC(Oc3nccnc3OCCN3CCOCC3)CC2)cc1` [CBK082923T], the viability at 28.5 h, 10 µM was found to be 91%.

Turning to `O[C@H]1[C@H](NCc2ccco2)[C@H]2CO[C@H](O2)[C@@H]1N1CCC(Cc2ccccc2)CC1` [CBK288815], the viability at 28.5 h, 10 µM came to 99.1%.

On to `O=C(CCN1C(=O)/C(=C\c2cccs2)SC1=S)Nc1cc(Cl)ccc1O` [CBK263643], for which the viability at 28.5 h, 10 µM turned out to be 98.2%.

On to `COc1ccc(C2=NNC(c3ccc(C(=O)O)cc3)C2)cc1` (stereo not shown) [CBK287167], for which the viability at 28.5 h, 10 µM was found to be 78%.

Consider `Cc1nc(C2CCCCN2C(=O)COc2ccccc2)ncc1C(=O)Nc1ccc(F)cc1` (stereo not shown) [CBK285871], for which the viability at 28.5 h, 10 µM worked out at 98.6%.

Regarding `Cc1nonc1CC(=O)N1CCC[C@@H]2[C@H]1C/C=C/Cc1ccccc1OCC(=O)N2C` [CBK292062], the viability at 28.5 h, 10 µM was 88.3%.

As to `Nc1cc(S(=O)(=O)O)c2cccnc2c1O` [CBK278176], the viability at 28.5 h, 10 µM amounted to 75.4%.

Consider `Cc1nc(C)c(C(=O)c2coc3ccc(O)cc23)o1` [CBK027631], for which the viability at 28.5 h, 10 µM amounted to 94.1%.

For `CC[C@H]1CN(C(=O)Nc2cccc(OC)c2)CC[C@H]1CC(=O)O` [CBK288778], the viability at 28.5 h, 10 µM amounted to 110%.

In the case of `CCn1cc(C(=O)NN)c(=O)c2cc(F)c(N3CCCCCC3)cc21` [CBK307145], the viability at 28.5 h, 10 µM stood at 100%.

As to `O=C(O)c1sccc1NS(=O)(=O)Cc1ccccc1` [CBK004561], the viability at 28.5 h, 10 µM was found to be 92.3%.

For `N#Cc1ccc2nc([C@H]3CCN(C(=O)C4CCCCC4)C3)[nH]c2c1` [CBK289380], the viability at 28.5 h, 10 µM was 90%.

For the compound `Cc1nc(C2CCN(C(=O)c3ccnn3C)CC2)c2sccn12` [CBK285203], the viability at 28.5 h, 10 µM was found to be 90.3%.

As for `Cc1cc2nc(SCCO)[nH]c2cc1C` [CBK027546], the viability at 28.5 h, 10 µM turned out to be 94.1%.

Consider `Nc1nn2c(-c3cccc(Cl)c3)nnc2s1` [CBK288122], for which the viability at 28.5 h, 10 µM was 73.2%.

Turning to `O=C(Nc1ccc2oc(-c3cccnc3)nc2c1)c1ccc(-c2ccc(OC(F)(F)F)cc2)o1` [CBK107713], the viability at 28.5 h, 10 µM was 101%.

Take `COc1cc(-c2ccc3ccc(N)nc3n2)cc(OC)c1OC` [CBK061866]: the viability at 28.5 h, 10 µM was 90.6%.

As for `Cc1cc(C)nc(-n2ncc3c2CC(c2cccs2)CC3=O)n1` (stereo not shown) [CBK269371], the viability at 28.5 h, 10 µM stood at 107%.

Regarding `CCOc1ccc(-c2n[nH]c(C)c2-c2ccc(OC)c(OC)c2)c(O)c1` [CBK288106], the viability at 28.5 h, 10 µM is 102%.

Take `Fc1ccc(-c2noc([C@@H]3CCCN3Cc3ncc[nH]3)n2)nc1` [CBK288897]: the viability at 28.5 h, 10 µM was 102%.

For `O=C1c2ccccc2C(=O)N1CCc1c[nH]c2ccc(O)cc12` [CBK086794], the viability at 28.5 h, 10 µM worked out at 76%.

With `COc1ccc(-c2cnc(NS(C)(=O)=O)c(C(=O)Nc3cc(C)nn3C)c2)cc1` [CBK076528], the viability at 28.5 h, 10 µM stood at 88.2%.

Consider `OCC1CCCN1c1cc(Cl)nc2ccnn12` (stereo not shown) [CBK037011], for which the viability at 28.5 h, 10 µM was found to be 95.7%.

For `COc1ccccc1C(=O)Cn1c(=O)n(S(=O)(=O)c2ccccc2)c2ccccc21` [CBK106497], the viability at 28.5 h, 10 µM came out at 90.2%.

`O=C(NNC(=O)c1cccnc1)c1ccc(NC(=O)c2ccco2)cc1` [CBK266792]: the viability at 28.5 h, 10 µM turned out to be 111%.

Regarding `CN(C)CCN(C)c1cc(-c2cccc(-c3ccccc3)c2)ncn1` [CBK037763], the viability at 28.5 h, 10 µM is 99.4%.

With `C[C@H](Nc1cncc(-c2ccc3c(c2)OCO3)n1)c1ccccc1` [CBK065962], the viability at 28.5 h, 10 µM worked out at 90.3%.

With `CCCCOc1ccc(Oc2ncc(C(F)(F)F)cc2Cl)cc1` [CBK161629], the viability at 28.5 h, 10 µM amounted to 94.4%.

The values are drawn from paper PMC12040169 (PLOS Biology, 2025).
